Test results published in patent publication US8962018B2, “Oral formulation of anhydrous olanzapine form I” (Laboratorios Lesvi, S.L., priority 2005, dated 2015).

Legend:
Assay type in all cases: physicochemical
[1] = Stability of olanzapine Form I product under ambient storage conditions
Procedure: Said method includes in vacuo drying of the solvate at a pressure ranging between 1 and 40 mmHg, preferably between 1 and 20 mmHg, and a temperature controlled between 10 and 50° C., preferably between 20 and 40° C. Said method provides olanzapine Form I in a simple manner, with a high yield of the end product (olanzapine Form I) and with high chemical purity (level of total impurities less than 0.3% as determined by HPLC), together with a high polymorphic purity (Form II<2%).

[2] = X-ray diffraction study of polymorphic form after direct compression; conditions: after direct compression into tablets
[3] = Effect of aqueous medium used for the coating on stability of the solid form; conditions: aqueous medium used for preparation of the coating

Cc1cc2c(s1)Nc1ccccc1N=C2N1CCN(C)CC1 [olanzapine Form I, Olanzapine]
Stability and colour variations [1]: remains stable and does not undergo colour variations | Polymorphic form stability (formation of Form II) [2]: remains stable without any formation of detectable amounts of the polymorph Form II being observed | Related substances and polymorphic form after aqueous coating [3]: no increase of related substances nor change in the polymorphic form
